How the values were obtained:
[1] = target: Serine/threonine-protein kinase RIO3 (Homo sapiens) (UniProt O14730); conditions: Compound concentration 1000.0 nM
[2] = target: Tyrosine-protein kinase Fgr (Homo sapiens) (UniProt P09769); conditions: Compound concentration 1000.0 nM
[3] = target: Casein kinase I isoform alpha (Homo sapiens) (UniProt P48729); conditions: Compound concentration 1000.0 nM
[4] = target: Vascular endothelial growth factor receptor 3 (Homo sapiens) (UniProt P35916); conditions: Compound concentration 1000.0 nM
[5] = target: Macrophage colony-stimulating factor 1 receptor (Homo sapiens) (UniProt P07333); conditions: Compound concentration 1000.0 nM
Sequence of Macrophage colony-stimulating factor 1 receptor (Homo sapiens) (P07333 whole entry): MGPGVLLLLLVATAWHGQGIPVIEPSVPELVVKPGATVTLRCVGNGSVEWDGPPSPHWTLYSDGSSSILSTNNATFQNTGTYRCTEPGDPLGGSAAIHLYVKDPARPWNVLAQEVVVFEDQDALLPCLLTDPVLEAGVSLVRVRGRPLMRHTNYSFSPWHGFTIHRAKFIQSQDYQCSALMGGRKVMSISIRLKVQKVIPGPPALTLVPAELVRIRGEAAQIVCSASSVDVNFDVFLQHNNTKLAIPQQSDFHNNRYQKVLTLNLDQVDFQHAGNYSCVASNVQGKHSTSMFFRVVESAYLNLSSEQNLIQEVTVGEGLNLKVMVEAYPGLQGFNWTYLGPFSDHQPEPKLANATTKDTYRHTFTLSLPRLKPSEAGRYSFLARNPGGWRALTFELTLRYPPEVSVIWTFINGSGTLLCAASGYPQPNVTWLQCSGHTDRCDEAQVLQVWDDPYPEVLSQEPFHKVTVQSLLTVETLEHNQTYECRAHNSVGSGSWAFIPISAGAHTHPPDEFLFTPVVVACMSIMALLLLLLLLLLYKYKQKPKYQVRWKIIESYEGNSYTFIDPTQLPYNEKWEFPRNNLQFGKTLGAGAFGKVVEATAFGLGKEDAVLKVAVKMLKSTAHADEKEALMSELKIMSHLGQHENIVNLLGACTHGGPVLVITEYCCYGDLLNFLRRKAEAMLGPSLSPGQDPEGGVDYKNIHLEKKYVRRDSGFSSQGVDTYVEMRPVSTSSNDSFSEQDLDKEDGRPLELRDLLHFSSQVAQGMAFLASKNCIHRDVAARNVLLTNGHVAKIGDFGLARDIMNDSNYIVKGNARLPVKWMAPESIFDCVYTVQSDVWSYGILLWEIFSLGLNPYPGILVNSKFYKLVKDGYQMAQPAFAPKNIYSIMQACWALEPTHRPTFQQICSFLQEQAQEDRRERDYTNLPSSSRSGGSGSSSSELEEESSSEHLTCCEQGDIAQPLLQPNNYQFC

[6] = target: RAC-gamma serine/threonine-protein kinase (Homo sapiens) (UniProt Q9Y243); conditions: Compound concentration 1000.0 nM
[7] = tested on: Epidermal growth factor receptor (Homo sapiens), P00533 [L858R,T790M]; conditions: Compound concentration 1000.0 nM
[8] = target: Serine/threonine-protein kinase BRSK2 (Homo sapiens) (UniProt Q8IWQ3); conditions: Compound concentration 1000.0 nM
[9] = target: Beta-2 adrenergic receptor (Homo sapiens) (UniProt P07550); conditions: Compound concentration 10.0 uM
[10] = target: SRSF protein kinase 2 (Homo sapiens) (UniProt P78362); conditions: Compound concentration 1000.0 nM
[11] = target: 5-hydroxytryptamine receptor 5A (Homo sapiens) (UniProt P47898); conditions: Compound concentration 10.0 uM
[12] = target: Tyrosine-protein kinase ZAP-70 (Homo sapiens) (UniProt P43403); conditions: Compound concentration 1000.0 nM
[13] = target: Homeodomain-interacting protein kinase 3 (Homo sapiens) (UniProt Q9H422); conditions: Compound concentration 1000.0 nM
[14] = target: Receptor-type tyrosine-protein kinase FLT3 (Homo sapiens) (UniProt P36888); conditions: Compound concentration 1000.0 nM
[15] = target: Mitogen-activated protein kinase kinase kinase 20 (Homo sapiens) (UniProt Q9NYL2); conditions: Compound concentration 1000.0 nM
Sequence of Mitogen-activated protein kinase kinase kinase 20 (Homo sapiens) (Q9NYL2 2-800 limits assumed): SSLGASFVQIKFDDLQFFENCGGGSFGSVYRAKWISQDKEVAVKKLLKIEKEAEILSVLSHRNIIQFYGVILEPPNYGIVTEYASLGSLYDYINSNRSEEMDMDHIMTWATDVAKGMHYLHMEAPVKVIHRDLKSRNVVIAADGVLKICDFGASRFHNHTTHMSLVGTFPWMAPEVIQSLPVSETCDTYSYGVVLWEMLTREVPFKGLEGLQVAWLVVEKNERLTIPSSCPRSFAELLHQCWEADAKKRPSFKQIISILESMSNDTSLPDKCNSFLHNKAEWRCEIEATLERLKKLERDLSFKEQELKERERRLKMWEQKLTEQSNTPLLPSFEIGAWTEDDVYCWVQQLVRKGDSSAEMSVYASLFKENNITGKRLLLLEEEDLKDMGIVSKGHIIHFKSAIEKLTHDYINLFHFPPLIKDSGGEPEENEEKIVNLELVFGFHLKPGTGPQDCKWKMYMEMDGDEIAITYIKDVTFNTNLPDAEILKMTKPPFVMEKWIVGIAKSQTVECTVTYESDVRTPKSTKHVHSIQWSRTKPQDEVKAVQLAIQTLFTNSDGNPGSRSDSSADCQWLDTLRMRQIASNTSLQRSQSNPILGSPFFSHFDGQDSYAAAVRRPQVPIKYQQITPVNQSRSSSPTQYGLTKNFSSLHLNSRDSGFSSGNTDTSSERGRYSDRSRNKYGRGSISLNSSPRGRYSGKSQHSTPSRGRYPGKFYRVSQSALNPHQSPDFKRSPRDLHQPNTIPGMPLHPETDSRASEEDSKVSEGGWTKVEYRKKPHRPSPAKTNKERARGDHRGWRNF

[16] = target: Myosin-IIIa (Homo sapiens) (UniProt Q8NEV4); conditions: Compound concentration 1000.0 nM
Sequence of Myosin-IIIa (Homo sapiens) (Q8NEV4 whole entry): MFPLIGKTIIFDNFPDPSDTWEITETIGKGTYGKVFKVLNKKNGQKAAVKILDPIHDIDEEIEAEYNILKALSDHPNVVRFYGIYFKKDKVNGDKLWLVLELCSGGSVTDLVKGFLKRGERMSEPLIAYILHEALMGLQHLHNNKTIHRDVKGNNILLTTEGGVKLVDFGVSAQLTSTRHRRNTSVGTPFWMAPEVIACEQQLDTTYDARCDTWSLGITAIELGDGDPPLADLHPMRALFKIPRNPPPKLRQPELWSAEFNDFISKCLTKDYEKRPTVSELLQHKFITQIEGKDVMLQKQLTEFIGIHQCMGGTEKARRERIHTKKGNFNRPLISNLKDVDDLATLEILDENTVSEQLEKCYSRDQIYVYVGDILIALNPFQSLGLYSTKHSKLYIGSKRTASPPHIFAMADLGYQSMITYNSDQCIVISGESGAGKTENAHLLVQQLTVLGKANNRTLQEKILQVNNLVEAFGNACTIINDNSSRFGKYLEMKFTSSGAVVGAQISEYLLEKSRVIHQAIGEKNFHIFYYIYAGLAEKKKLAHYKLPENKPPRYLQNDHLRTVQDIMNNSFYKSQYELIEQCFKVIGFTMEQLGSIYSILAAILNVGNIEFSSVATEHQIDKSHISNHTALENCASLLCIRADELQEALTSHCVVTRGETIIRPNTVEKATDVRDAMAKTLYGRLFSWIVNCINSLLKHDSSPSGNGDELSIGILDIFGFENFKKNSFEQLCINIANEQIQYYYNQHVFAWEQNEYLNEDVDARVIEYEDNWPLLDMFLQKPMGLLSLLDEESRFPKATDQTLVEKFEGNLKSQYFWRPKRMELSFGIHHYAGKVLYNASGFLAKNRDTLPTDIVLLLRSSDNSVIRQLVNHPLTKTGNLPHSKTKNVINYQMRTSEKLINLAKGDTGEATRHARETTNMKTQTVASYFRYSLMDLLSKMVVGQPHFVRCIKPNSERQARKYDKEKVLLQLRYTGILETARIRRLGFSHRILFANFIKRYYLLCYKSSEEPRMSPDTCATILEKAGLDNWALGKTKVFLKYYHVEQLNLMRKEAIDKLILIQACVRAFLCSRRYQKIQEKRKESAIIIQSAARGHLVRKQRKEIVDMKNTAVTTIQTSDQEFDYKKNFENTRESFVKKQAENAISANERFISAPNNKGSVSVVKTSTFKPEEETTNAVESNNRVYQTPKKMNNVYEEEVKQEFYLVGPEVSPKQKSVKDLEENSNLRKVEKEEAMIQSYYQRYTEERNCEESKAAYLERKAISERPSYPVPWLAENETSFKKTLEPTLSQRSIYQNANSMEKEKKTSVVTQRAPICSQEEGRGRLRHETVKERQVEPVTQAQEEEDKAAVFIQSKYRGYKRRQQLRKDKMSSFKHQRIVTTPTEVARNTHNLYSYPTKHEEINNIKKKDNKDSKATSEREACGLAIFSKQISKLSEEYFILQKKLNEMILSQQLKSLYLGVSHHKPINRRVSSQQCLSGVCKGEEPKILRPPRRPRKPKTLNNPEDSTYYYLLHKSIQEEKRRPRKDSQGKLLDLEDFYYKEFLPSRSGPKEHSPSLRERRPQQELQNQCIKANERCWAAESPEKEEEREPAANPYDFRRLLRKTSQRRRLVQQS

[17] = target: Sodium-dependent serotonin transporter (Homo sapiens) (UniProt P31645); conditions: Compound concentration 10.0 uM
[18] = target: 5-hydroxytryptamine receptor 1B (Homo sapiens) (UniProt P28222); conditions: Compound concentration 10.0 uM
Sequence of 5-hydroxytryptamine receptor 1B (Homo sapiens) (P28222 whole entry): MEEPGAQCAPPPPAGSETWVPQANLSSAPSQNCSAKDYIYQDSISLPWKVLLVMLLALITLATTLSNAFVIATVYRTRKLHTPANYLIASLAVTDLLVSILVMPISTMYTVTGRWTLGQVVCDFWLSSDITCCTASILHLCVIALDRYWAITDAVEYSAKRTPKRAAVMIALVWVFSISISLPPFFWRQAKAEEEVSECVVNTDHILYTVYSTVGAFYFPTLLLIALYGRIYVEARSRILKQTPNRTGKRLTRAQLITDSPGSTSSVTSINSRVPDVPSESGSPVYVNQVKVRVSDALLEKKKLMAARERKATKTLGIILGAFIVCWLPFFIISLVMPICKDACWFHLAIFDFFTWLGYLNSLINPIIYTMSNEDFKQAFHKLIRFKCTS

[19] = target: Non-receptor tyrosine-protein kinase TYK2 (Homo sapiens) (UniProt P29597); conditions: Compound concentration 1000.0 nM
[20] = target: Tyrosine-protein kinase CSK (Homo sapiens) (UniProt P41240); conditions: Compound concentration 1000.0 nM
[21] = target: Serine/threonine-protein kinase pim-3 (Homo sapiens) (UniProt Q86V86); conditions: Compound concentration 1000.0 nM
[22] = target: Tyrosine-protein kinase HCK (Homo sapiens) (UniProt P08631); conditions: Compound concentration 1000.0 nM
[23] = target: Atypical kinase COQ8A, mitochondrial (Homo sapiens) (UniProt Q8NI60); conditions: Compound concentration 1000.0 nM
[24] = target: Cyclin-dependent kinase 4 (Homo sapiens) (UniProt P11802); conditions: Compound concentration 1000.0 nM
Sequence of Cyclin-dependent kinase 4 (Homo sapiens) (P11802 whole entry): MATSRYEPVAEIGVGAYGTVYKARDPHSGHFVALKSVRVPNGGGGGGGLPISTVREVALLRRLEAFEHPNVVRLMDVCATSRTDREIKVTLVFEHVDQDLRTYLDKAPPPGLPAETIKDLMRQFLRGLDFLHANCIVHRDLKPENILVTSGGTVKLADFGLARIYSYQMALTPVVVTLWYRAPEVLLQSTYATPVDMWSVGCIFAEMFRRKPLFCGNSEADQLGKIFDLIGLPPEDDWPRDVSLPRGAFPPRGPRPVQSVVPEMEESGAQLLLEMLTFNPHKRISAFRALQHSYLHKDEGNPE

[25] = target: Wee1-like protein kinase 2 (Homo sapiens) (UniProt P0C1S8); conditions: Compound concentration 1000.0 nM
Sequence of Wee1-like protein kinase 2 (Homo sapiens) (P0C1S8 whole entry, looked up): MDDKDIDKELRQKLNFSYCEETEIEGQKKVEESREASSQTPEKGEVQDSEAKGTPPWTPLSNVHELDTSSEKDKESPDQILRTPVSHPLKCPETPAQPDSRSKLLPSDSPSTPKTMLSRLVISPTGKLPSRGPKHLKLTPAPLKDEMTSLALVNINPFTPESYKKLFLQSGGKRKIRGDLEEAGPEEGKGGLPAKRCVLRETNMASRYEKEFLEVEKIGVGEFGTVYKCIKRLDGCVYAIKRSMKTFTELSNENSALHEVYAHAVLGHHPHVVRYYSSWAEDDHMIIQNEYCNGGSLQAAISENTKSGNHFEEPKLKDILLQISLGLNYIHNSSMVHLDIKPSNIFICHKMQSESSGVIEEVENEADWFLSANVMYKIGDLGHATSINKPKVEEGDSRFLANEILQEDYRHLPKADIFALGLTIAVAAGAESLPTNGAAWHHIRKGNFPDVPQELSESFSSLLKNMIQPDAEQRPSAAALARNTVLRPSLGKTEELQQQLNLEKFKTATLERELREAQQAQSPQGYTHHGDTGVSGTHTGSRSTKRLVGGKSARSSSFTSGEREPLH

[26] = target: Misshapen-like kinase 1 (Homo sapiens) (UniProt Q8N4C8); conditions: Compound concentration 1000.0 nM
[27] = target: MAP/microtubule affinity-regulating kinase 3 (Homo sapiens) (UniProt P27448); conditions: Compound concentration 1000.0 nM
[28] = target: Cyclin-dependent kinase 4 (Homo sapiens) (UniProt P11802); conditions: Compound concentration 1000.0 nM; remark: listed apart in the source
[29] = target: Tyrosine-protein kinase receptor TYRO3 (Homo sapiens) (UniProt Q06418); conditions: Compound concentration 1000.0 nM
[30] = target: SRSF protein kinase 1 (Homo sapiens) (UniProt Q96SB4); conditions: Compound concentration 1000.0 nM
[31] = target: Aurora kinase B (Homo sapiens) (UniProt Q96GD4); conditions: Compound concentration 1000.0 nM
[32] = target: Cytoplasmic tyrosine-protein kinase BMX (Homo sapiens) (UniProt P51813); conditions: Compound concentration 1000.0 nM
[33] = target: Calcium/calmodulin-dependent protein kinase type 1G (Homo sapiens) (UniProt Q96NX5); conditions: Compound concentration 1000.0 nM
[34] = target: Interleukin-1 receptor-associated kinase 1 (Homo sapiens) (UniProt P51617); conditions: Compound concentration 1000.0 nM
[35] = target: D(3) dopamine receptor (Homo sapiens) (UniProt P35462); conditions: Compound concentration 10.0 uM
Sequence of D(3) dopamine receptor (Homo sapiens) (P35462 whole entry): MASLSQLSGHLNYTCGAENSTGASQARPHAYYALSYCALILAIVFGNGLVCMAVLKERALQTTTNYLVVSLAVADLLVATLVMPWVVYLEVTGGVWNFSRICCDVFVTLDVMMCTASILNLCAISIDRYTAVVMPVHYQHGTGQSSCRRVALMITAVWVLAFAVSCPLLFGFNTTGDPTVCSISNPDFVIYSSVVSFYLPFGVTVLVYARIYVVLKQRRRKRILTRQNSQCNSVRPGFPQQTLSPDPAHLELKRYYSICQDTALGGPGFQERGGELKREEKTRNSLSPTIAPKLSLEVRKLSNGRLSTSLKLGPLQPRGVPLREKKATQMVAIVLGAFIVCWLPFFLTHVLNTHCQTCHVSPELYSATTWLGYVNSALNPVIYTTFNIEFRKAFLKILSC

[36] = target: Cyclin-dependent kinase 13 (Homo sapiens) (UniProt Q14004); conditions: Compound concentration 1000.0 nM
[37] = tested on: Mast/stem cell growth factor receptor Kit (Homo sapiens), P10721 [L576P]; conditions: Compound concentration 1000.0 nM
[38] = target: Cyclin-dependent kinase 17 (Homo sapiens) (UniProt Q00537); conditions: Compound concentration 1000.0 nM
[39] = target: Cyclin-dependent kinase 4 (Homo sapiens) (UniProt P11802); conditions: Compound concentration 1000.0 nM; remark: listed apart in the source
[40] = target: Ephrin type-A receptor 4 (Homo sapiens) (UniProt P54764); conditions: Compound concentration 1000.0 nM
[41] = target: Leukocyte tyrosine kinase receptor (Homo sapiens) (UniProt P29376); conditions: Compound concentration 1000.0 nM
[42] = target: cGMP-dependent protein kinase 2 (Homo sapiens) (UniProt Q13237); conditions: Compound concentration 1000.0 nM
[43] = target: Mitogen-activated protein kinase 13 (Homo sapiens) (UniProt O15264); conditions: Compound concentration 1000.0 nM
[44] = target: Tyrosine-protein kinase JAK3 (Homo sapiens) (UniProt P52333); conditions: Compound concentration 1000.0 nM
[45] = target: Mitogen-activated protein kinase 12 (Homo sapiens) (UniProt P53778); conditions: Compound concentration 1000.0 nM
[46] = tested on: Tyrosine-protein kinase ABL1 (Homo sapiens), P00519 [Y253F]; conditions: Compound concentration 1000.0 nM

CN([C@@H]1CCc2c(CC(=O)O)c3cc(S(C)(=O)=O)ccc3n2C1)S(=O)(=O)c1ccc(F)cc1
inactive: residual activity [1] 94% | residual activity [2] 84% | residual activity [3] 100% | residual activity [4] 100% | residual activity [5] 93% | residual activity [6] 83% | residual activity [7] 100% | residual activity [8] 100% | inhibition [9] 0.0525% | residual activity [10] 100% | inhibition [11] -1.56% | residual activity [12] 100% | residual activity [13] 68% | residual activity [14] 100% | residual activity [15] 80% | residual activity [16] 100% | inhibition [17] 5.16% | inhibition [18] 2.6% | residual activity [19] 83% | residual activity [20] 99% | residual activity [21] 100% | residual activity [22] 87% | residual activity [23] 87% | residual activity [24] 90% | residual activity [25] 95% | residual activity [26] 92% | residual activity [27] 100% | residual activity [28] 91% | residual activity [29] 91% | residual activity [30] 100% | residual activity [31] 83% | residual activity [32] 100% | residual activity [33] 100% | residual activity [34] 91% | inhibition [35] -5.72% | residual activity [36] 86% | residual activity [37] 89% | residual activity [38] 100% | residual activity [39] 93% | residual activity [40] 93% | residual activity [41] 100% | residual activity [42] 95% | residual activity [43] 68% | residual activity [44] 100% | residual activity [45] 100% | residual activity [46] 82%

CN([C@@H]1CCc2c(CC(=O)O)c3ccccc3n2C1)S(=O)(=O)c1ccc(F)cc1 [MK-7246]
inactive: residual activity [1] 100% | residual activity [2] 93% | residual activity [3] 80% | residual activity [4] 95% | residual activity [5] 100% | residual activity [6] 100% | residual activity [7] 100% | residual activity [8] 100% | inhibition [9] -7.68% | residual activity [10] 100% | inhibition [11] -1.36% | residual activity [12] 100% | residual activity [13] 71% | residual activity [14] 100% | residual activity [15] 99% | residual activity [16] 100% | inhibition [17] 9.29% | inhibition [18] 35.6% | residual activity [19] 100% | residual activity [20] 100% | residual activity [21] 100% | residual activity [22] 95% | residual activity [23] 100% | residual activity [24] 87% | residual activity [25] 100% | residual activity [26] 100% | residual activity [27] 100% | residual activity [28] 99% | residual activity [29] 72% | residual activity [30] 100% | residual activity [31] 91% | residual activity [32] 100% | residual activity [33] 100% | residual activity [34] 78% | inhibition [35] -4.25% | residual activity [36] 95% | residual activity [37] 100% | residual activity [38] 100% | residual activity [39] 100% | residual activity [40] 87% | residual activity [41] 100% | residual activity [42] 100% | residual activity [43] 91% | residual activity [44] 98% | residual activity [45] 94% | residual activity [46] 100%

Reference: ChEMBL document CHEMBL4507290 (2021)
